According to the kinase profiling compilation of Christmann-Franck et al. (2016):

What was measured:
Experiment in all cases: radiometric filter-binding kinase assay
EPHB2 (human) = EPHB2 (human) (UniProt P29323)
CDK2 CCNA2 (human) = CDK2 CCNA2 (human) (UniProt P20248+P24941)
IKBKB (human) = IKBKB (human) (UniProt O14920)
EPHB1 (human) = EPHB1 (human) (UniProt P54762)
MINK1 (human) = MINK1 (human) (UniProt Q8N4C8)
RPS6KA3 KD1 KD2 (human) = RPS6KA3 KD1 KD2 (human) (UniProt P51812)
CaMK1 (human) = CaMK1 (human) (UniProt Q14012)
TBK1 (human) = TBK1 (human) (UniProt Q9UHD2)
EPHA2 (human) = EPHA2 (human) (UniProt P29317)
PAK4 (human) = PAK4 (human) (UniProt O96013)
PAK4 (human), sequence (O96013 whole entry, looked up): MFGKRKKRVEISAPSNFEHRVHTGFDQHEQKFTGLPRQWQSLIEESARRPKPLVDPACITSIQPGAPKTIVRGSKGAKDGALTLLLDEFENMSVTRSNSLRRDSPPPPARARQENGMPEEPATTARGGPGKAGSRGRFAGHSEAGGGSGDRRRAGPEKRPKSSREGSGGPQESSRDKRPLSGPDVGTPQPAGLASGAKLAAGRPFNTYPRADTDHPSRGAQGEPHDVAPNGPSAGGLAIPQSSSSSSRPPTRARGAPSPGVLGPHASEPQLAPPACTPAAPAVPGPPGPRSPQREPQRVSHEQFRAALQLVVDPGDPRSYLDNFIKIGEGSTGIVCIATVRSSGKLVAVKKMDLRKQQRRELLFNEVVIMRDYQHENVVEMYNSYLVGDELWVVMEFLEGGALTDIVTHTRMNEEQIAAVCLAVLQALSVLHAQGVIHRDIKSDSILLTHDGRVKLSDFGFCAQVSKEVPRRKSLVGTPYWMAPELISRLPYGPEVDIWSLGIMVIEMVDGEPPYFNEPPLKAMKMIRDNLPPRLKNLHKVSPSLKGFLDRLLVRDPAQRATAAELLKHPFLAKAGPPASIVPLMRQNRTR

TTK (human) = TTK (human) (UniProt P33981)
PAK6 (human) = PAK6 (human) (UniProt Q9NQU5)
MARK2 (human) = MARK2 (human) (UniProt Q7KZI7)
CHEK2 (human) = CHEK2 (human) (UniProt O96017)
DYRK3 (human) = DYRK3 (human) (UniProt O43781)
DYRK3 (human), sequence (O43781 whole entry, looked up): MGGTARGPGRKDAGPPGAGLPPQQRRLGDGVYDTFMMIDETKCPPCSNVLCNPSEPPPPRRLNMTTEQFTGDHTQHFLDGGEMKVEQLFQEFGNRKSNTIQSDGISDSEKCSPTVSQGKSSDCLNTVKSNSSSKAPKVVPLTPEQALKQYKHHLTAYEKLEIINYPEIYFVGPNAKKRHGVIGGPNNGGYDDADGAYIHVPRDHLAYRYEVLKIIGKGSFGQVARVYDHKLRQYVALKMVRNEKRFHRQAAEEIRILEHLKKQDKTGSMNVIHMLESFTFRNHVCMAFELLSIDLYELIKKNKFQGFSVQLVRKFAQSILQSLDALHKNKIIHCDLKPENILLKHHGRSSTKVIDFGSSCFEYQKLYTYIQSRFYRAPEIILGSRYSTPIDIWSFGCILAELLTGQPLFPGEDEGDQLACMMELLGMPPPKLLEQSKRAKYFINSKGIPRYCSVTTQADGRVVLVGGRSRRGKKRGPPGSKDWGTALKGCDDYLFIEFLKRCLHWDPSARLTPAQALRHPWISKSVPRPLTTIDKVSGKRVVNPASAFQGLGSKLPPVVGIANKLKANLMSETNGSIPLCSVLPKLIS

AURKB (human) = AURKB (human) (UniProt Q96GD4)
MAP2K1 (human) = MAP2K1 (human) (UniProt Q02750)
MAP2K1 (human), sequence (Q02750 whole entry, looked up): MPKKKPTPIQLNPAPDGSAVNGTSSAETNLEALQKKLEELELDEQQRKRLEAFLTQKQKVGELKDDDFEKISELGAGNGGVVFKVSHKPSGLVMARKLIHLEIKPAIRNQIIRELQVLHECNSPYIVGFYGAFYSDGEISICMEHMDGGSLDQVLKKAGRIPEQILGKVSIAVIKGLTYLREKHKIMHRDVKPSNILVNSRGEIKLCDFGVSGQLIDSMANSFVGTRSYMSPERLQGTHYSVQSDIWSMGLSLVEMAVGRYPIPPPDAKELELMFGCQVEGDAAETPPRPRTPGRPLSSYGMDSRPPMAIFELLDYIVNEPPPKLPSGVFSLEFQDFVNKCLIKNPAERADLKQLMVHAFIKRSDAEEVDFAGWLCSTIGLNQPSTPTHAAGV

CSK (human) = CSK (human) (UniProt P41240)
GCK (human) = GCK (human) (UniProt Q12851)
GCK (human), sequence (Q12851 whole entry, looked up): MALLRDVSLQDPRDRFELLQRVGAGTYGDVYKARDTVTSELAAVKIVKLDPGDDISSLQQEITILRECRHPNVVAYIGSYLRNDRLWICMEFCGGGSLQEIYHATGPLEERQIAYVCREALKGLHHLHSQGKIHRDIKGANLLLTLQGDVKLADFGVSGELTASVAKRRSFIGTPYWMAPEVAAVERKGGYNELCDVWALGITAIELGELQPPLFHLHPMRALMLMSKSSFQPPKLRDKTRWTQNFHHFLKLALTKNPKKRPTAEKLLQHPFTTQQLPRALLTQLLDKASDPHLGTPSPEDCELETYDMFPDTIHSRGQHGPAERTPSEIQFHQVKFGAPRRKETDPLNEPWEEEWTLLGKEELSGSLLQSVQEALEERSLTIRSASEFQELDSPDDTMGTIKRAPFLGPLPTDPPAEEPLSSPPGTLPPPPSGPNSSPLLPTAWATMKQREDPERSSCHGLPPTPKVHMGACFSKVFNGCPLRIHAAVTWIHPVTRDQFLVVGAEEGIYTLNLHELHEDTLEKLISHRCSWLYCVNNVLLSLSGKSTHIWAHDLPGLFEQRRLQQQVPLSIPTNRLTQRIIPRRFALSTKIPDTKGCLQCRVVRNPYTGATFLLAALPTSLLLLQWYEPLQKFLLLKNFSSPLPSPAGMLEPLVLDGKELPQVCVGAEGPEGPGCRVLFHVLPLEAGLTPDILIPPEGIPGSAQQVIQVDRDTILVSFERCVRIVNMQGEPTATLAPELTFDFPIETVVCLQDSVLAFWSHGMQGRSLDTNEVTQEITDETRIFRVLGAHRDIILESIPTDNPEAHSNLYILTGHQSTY

LCK (mouse) = conditions: accession and sequence are those of the human protein
SRC (human) = SRC (human) (UniProt P12931)
TAOK1 (human) = TAOK1 (human) (UniProt Q7L7X3)
PKN2 (human) = PKN2 (human) (UniProt Q16513)
MAPK10 (human) = MAPK10 (human) (UniProt P53779)
[1] = system: PAK2 (human), Q13177 [T402E]
EPHA4 (human) = EPHA4 (human) (UniProt P54764)
NUAK1 (human) = NUAK1 (human) (UniProt O60285)
ROCK2 (rat) = conditions: accession and sequence are those of the human protein
MAP3K11 (human) = MAP3K11 (human) (UniProt Q16584)
MAP3K11 (human), sequence (Q16584 whole entry, looked up): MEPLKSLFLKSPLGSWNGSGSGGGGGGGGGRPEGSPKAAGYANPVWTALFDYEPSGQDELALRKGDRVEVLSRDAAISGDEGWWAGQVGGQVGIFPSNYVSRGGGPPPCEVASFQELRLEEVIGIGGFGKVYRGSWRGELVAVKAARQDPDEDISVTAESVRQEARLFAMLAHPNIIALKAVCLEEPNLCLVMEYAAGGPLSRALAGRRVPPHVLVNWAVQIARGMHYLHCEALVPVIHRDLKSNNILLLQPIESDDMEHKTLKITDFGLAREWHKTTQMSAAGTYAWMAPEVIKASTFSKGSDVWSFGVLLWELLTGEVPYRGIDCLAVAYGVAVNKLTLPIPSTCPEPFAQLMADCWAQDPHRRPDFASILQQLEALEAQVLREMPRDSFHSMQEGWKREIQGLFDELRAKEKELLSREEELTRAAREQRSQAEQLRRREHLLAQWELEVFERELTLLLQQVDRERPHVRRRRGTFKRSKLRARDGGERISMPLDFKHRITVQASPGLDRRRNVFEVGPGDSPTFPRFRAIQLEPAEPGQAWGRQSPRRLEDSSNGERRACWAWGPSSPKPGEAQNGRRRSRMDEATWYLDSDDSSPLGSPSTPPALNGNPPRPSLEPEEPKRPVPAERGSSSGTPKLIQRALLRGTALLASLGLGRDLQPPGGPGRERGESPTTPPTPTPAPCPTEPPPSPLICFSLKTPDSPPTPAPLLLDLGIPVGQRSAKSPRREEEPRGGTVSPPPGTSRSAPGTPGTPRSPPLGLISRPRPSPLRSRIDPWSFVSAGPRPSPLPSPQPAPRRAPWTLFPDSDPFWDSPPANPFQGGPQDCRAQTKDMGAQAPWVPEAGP

CHEK1 (human) = CHEK1 (human) (UniProt O14757)
MAPK8 (human) = MAPK8 (human) (UniProt P45983)
MST4 (human) = MST4 (human) (UniProt Q9P289)
MYLK (human) = MYLK (human) (UniProt Q15746)
[2] = system: AKT1 (human), P31749 [S473D]
MAP3K7 TAB1 (human) = MAP3K7 TAB1 (human) (UniProt Q15750+O43318)
EPHB3 (human) = EPHB3 (human) (UniProt P54753)
EPHB3 (human), sequence (P54753 whole entry, looked up): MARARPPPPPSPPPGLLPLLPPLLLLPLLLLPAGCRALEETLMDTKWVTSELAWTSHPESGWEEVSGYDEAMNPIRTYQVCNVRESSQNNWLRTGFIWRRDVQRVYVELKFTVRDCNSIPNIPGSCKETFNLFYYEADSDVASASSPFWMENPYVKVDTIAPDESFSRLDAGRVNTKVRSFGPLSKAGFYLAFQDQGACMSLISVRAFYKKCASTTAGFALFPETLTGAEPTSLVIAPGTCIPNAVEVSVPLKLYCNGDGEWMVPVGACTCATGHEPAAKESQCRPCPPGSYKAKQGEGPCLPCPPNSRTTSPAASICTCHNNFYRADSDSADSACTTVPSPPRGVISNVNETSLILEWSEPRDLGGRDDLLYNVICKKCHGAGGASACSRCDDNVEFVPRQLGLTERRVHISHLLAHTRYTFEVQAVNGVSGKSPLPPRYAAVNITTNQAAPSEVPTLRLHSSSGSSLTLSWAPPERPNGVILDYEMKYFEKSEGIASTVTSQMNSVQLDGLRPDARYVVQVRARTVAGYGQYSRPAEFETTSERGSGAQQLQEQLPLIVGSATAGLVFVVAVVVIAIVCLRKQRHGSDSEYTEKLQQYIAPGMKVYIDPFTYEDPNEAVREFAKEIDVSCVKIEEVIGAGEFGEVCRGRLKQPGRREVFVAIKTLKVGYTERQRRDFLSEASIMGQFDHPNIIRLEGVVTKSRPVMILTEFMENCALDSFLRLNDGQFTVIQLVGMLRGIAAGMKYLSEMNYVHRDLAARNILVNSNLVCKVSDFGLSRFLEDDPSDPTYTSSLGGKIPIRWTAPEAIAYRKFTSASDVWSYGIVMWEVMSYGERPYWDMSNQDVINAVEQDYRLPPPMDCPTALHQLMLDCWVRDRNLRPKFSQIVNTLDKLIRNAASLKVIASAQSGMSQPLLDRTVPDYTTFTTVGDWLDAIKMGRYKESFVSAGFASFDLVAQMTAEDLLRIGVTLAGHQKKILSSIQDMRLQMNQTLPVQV

RPS6KA3 KD1 KD2 (human), sequence (P51812 whole entry, looked up): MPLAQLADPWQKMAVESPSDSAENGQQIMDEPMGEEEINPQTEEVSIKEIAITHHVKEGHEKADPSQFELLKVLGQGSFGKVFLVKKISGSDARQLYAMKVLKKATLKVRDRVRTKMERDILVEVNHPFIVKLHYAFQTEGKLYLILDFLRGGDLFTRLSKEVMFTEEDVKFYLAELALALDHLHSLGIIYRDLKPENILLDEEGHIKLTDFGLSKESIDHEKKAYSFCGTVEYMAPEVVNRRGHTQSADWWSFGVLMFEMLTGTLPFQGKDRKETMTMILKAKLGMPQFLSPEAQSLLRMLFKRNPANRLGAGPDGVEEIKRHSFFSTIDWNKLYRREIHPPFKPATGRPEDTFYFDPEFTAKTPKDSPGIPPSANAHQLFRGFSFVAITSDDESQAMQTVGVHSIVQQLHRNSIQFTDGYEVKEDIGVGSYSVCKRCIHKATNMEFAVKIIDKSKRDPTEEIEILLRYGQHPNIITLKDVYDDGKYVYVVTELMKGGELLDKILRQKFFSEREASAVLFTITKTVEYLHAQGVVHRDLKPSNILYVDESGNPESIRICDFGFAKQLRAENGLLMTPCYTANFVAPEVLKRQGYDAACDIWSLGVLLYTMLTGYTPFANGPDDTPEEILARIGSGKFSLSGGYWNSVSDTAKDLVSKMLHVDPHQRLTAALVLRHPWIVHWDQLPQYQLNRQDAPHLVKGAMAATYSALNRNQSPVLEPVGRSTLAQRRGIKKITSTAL

- residual activity (EPHB2 (human); compound 1.0 µM): 119%
- residual activity (EPHB2 (human); compound 10.0 µM): 111%
- residual activity (CDK2 CCNA2 (human); compound 0.01 µM): 104%
- residual activity (CDK2 CCNA2 (human); compound 0.1 µM): 101%
- residual activity (CDK2 CCNA2 (human); compound 1.0 µM): 103%
- residual activity (CDK2 CCNA2 (human); compound 10.0 µM): 85%
- residual activity (IKBKB (human); compound 0.01 µM): 105%
- residual activity (IKBKB (human); compound 0.1 µM): 112%
- residual activity (IKBKB (human); compound 1.0 µM): 118%
- residual activity (IKBKB (human); compound 10.0 µM): 103%
- residual activity (EPHB1 (human); compound 1.0 µM): 111%
- residual activity (EPHB1 (human); compound 10.0 µM): 118%
- residual activity (MINK1 (human); compound 0.01 µM): 121%
- residual activity (MINK1 (human); compound 0.1 µM): 110%
- residual activity (MINK1 (human); compound 1.0 µM): 89%
- residual activity (MINK1 (human); compound 10.0 µM): 74%
- residual activity (RPS6KA3 KD1 KD2 (human); compound 0.1 µM): 97%
- residual activity (RPS6KA3 KD1 KD2 (human); compound 1.0 µM): 79%
- residual activity (RPS6KA3 KD1 KD2 (human); compound 10.0 µM): 28%
- residual activity (CaMK1 (human); compound 0.01 µM): 108%
- residual activity (CaMK1 (human); compound 0.1 µM): 112%
- residual activity (CaMK1 (human); compound 1.0 µM): 89%
- residual activity (CaMK1 (human); compound 10.0 µM): 95%
- residual activity (TBK1 (human); compound 0.01 µM): 110%
- residual activity (TBK1 (human); compound 0.1 µM): 115%
- residual activity (TBK1 (human); compound 1.0 µM): 89%
- residual activity (TBK1 (human); compound 10.0 µM): 81%
- residual activity (EPHA2 (human); compound 0.01 µM): 110%
- residual activity (EPHA2 (human); compound 0.1 µM): 118%
- residual activity (EPHA2 (human); compound 1.0 µM): 100%
- residual activity (EPHA2 (human); compound 10.0 µM): 84%
- residual activity (PAK4 (human); compound 0.01 µM): 108%
- residual activity (PAK4 (human); compound 0.1 µM): 117%
- residual activity (PAK4 (human); compound 1.0 µM): 100%
- residual activity (TTK (human); compound 0.01 µM): 90%
- residual activity (TTK (human); compound 0.1 µM): 98%
- residual activity (TTK (human); compound 1.0 µM): 84%
- residual activity (TTK (human); compound 10.0 µM): 61%
- residual activity (PAK6 (human); compound 0.01 µM): 108%
- residual activity (PAK6 (human); compound 0.1 µM): 120%
- residual activity (PAK6 (human); compound 1.0 µM): 99%
- residual activity (PAK6 (human); compound 10.0 µM): 96%
- residual activity (MARK2 (human); compound 0.01 µM): 113%
- residual activity (MARK2 (human); compound 0.1 µM): 114%
- residual activity (MARK2 (human); compound 1.0 µM): 96%
- residual activity (MARK2 (human); compound 10.0 µM): 102%
- residual activity (CHEK2 (human); compound 0.1 µM): 121%
- residual activity (CHEK2 (human); compound 1.0 µM): 96%
- residual activity (CHEK2 (human); compound 10.0 µM): 51%
- residual activity (DYRK3 (human); compound 0.01 µM): 100%
- residual activity (DYRK3 (human); compound 0.1 µM): 103%
- residual activity (DYRK3 (human); compound 1.0 µM): 94%
- residual activity (DYRK3 (human); compound 10.0 µM): 88%
- residual activity (AURKB (human); compound 0.01 µM): 105%
- residual activity (AURKB (human); compound 0.1 µM): 106%
- residual activity (AURKB (human); compound 1.0 µM): 72%
- residual activity (AURKB (human); compound 10.0 µM): 29%
- residual activity (MAP2K1 (human); compound 0.01 µM): 86%
- residual activity (MAP2K1 (human); compound 0.1 µM): 101%
- residual activity (MAP2K1 (human); compound 1.0 µM): 85%
- residual activity (MAP2K1 (human); compound 10.0 µM): 74%
- residual activity (CSK (human); compound 0.01 µM): 103%
- residual activity (CSK (human); compound 0.1 µM): 104%
- residual activity (CSK (human); compound 1.0 µM): 100%
- residual activity (CSK (human); compound 10.0 µM): 93%
- residual activity (GCK (human); compound 0.01 µM): 109%
- residual activity (GCK (human); compound 0.1 µM): 116%
- residual activity (GCK (human); compound 1.0 µM): 97%
- residual activity (GCK (human); compound 10.0 µM): 86%
- residual activity (LCK (mouse); compound 0.01 µM): 112%
- residual activity (LCK (mouse); compound 0.1 µM): 107%
- residual activity (LCK (mouse); compound 1.0 µM): 97%
- residual activity (LCK (mouse); compound 10.0 µM): 99%
- residual activity (SRC (human); compound 0.01 µM): 101%
- residual activity (SRC (human); compound 0.1 µM): 105%
- residual activity (SRC (human); compound 1.0 µM): 95%
- residual activity (TAOK1 (human); compound 1.0 µM): 86%
- residual activity (TAOK1 (human); compound 10.0 µM): 96%
- residual activity (PKN2 (human); compound 0.01 µM): 90%
- residual activity (PKN2 (human); compound 0.1 µM): 102%
- residual activity (PKN2 (human); compound 1.0 µM): 118%
- residual activity (PKN2 (human); compound 10.0 µM): 81%
- residual activity (MAPK10 (human); compound 0.01 µM): 106%
- residual activity (MAPK10 (human); compound 0.1 µM): 106%
- residual activity (MAPK10 (human); compound 10.0 µM): 97%
- residual activity ([1]; compound 0.01 µM): 105%
- residual activity ([1]; compound 0.1 µM): 119%
- residual activity ([1]; compound 1.0 µM): 102%
- residual activity ([1]; compound 10.0 µM): 77%
- residual activity (EPHA4 (human); compound 1.0 µM): 86%
- residual activity (EPHA4 (human); compound 10.0 µM): 98%
- residual activity (NUAK1 (human); compound 0.01 µM): 120%
- residual activity (NUAK1 (human); compound 0.1 µM): 105%
- residual activity (NUAK1 (human); compound 1.0 µM): 47%
- residual activity (NUAK1 (human); compound 10.0 µM): 9%
- residual activity (ROCK2 (rat); compound 0.01 µM): 96%
- residual activity (ROCK2 (rat); compound 0.1 µM): 92%
- residual activity (ROCK2 (rat); compound 1.0 µM): 67%
- residual activity (ROCK2 (rat); compound 10.0 µM): 27%
- residual activity (MAP3K11 (human); compound 0.01 µM): 100%
- residual activity (MAP3K11 (human); compound 0.1 µM): 110%
- residual activity (MAP3K11 (human); compound 1.0 µM): 80%
- residual activity (MAP3K11 (human); compound 10.0 µM): 44%
- residual activity (CHEK1 (human); compound 0.01 µM): 111%
- residual activity (CHEK1 (human); compound 0.1 µM): 106%
- residual activity (CHEK1 (human); compound 1.0 µM): 96%
- residual activity (CHEK1 (human); compound 10.0 µM): 103%
- residual activity (MAPK8 (human); compound 0.01 µM): 92%
- residual activity (MAPK8 (human); compound 0.1 µM): 108%
- residual activity (MAPK8 (human); compound 1.0 µM): 94%
- residual activity (MAPK8 (human); compound 10.0 µM): 108%
- residual activity (MST4 (human); compound 0.01 µM): 112%
- residual activity (MST4 (human); compound 0.1 µM): 108%
- residual activity (MST4 (human); compound 1.0 µM): 102%
- residual activity (MST4 (human); compound 10.0 µM): 102%
- residual activity (MYLK (human); compound 0.01 µM): 116%
- residual activity (MYLK (human); compound 0.1 µM): 113%
- residual activity (MYLK (human); compound 1.0 µM): 99%
- residual activity (MYLK (human); compound 10.0 µM): 62%
- residual activity ([2]; compound 1.0 µM): 98%
- residual activity ([2]; compound 10.0 µM): 36%
- residual activity (MAP3K7 TAB1 (human); compound 1.0 µM): 99%
- residual activity (MAP3K7 TAB1 (human); compound 10.0 µM): 79%
- residual activity (EPHB3 (human); compound 0.01 µM): 106%
- residual activity (EPHB3 (human); compound 0.1 µM): 107%
- residual activity (EPHB3 (human); compound 1.0 µM): 120%
- residual activity (EPHB3 (human); compound 10.0 µM): 103%
SMILES: CNc1nc(-c2ccc3c(N)n[nH]c3c2)cc(N2C[C@@H](C(=O)NC3CCCCC3)CC[C@H]2C)n1
